Experimental data from US12371428B2 (Exelixis, Inc., priority 2019, dated 2025).

Legend:
[1] = biological target: Human MER (residues 528-999) (Homo sapiens (Human), UniProt Q12866); test: Human Mer kinase assay, HTRF KinEase (Example C-2); format: biochemical
Method in brief: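 IC50 values from 10 concentrations via 4-parameter logistic fit of […], with DMSO as 100% and 1 μM reference compound as 0% activity. Reaction: MER kinase domain 528-999, 1 ng/well, 40 μM ATP (Km), biotin peptide, 5 mM MgCl2, 1 mM DTT, 3% DMSO, room temperature 60 min; HTRF streptavidin-XL665/Eu-antibody detection.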

[2] = biological target: KDR (phospho-KDR, VEGF165-stimulated HUVEC cells) (Homo sapiens (Human), UniProt P35968); test: KDR autophosphorylation ELISA in HUVEC cells (Example G); format: cell-based; details: cellular activity; KDR autophosphorylation ELISA in HUVEC cells
KDR (phospho-KDR, VEGF165-stimulated HUVEC cells), sequence (P35968 20-1356): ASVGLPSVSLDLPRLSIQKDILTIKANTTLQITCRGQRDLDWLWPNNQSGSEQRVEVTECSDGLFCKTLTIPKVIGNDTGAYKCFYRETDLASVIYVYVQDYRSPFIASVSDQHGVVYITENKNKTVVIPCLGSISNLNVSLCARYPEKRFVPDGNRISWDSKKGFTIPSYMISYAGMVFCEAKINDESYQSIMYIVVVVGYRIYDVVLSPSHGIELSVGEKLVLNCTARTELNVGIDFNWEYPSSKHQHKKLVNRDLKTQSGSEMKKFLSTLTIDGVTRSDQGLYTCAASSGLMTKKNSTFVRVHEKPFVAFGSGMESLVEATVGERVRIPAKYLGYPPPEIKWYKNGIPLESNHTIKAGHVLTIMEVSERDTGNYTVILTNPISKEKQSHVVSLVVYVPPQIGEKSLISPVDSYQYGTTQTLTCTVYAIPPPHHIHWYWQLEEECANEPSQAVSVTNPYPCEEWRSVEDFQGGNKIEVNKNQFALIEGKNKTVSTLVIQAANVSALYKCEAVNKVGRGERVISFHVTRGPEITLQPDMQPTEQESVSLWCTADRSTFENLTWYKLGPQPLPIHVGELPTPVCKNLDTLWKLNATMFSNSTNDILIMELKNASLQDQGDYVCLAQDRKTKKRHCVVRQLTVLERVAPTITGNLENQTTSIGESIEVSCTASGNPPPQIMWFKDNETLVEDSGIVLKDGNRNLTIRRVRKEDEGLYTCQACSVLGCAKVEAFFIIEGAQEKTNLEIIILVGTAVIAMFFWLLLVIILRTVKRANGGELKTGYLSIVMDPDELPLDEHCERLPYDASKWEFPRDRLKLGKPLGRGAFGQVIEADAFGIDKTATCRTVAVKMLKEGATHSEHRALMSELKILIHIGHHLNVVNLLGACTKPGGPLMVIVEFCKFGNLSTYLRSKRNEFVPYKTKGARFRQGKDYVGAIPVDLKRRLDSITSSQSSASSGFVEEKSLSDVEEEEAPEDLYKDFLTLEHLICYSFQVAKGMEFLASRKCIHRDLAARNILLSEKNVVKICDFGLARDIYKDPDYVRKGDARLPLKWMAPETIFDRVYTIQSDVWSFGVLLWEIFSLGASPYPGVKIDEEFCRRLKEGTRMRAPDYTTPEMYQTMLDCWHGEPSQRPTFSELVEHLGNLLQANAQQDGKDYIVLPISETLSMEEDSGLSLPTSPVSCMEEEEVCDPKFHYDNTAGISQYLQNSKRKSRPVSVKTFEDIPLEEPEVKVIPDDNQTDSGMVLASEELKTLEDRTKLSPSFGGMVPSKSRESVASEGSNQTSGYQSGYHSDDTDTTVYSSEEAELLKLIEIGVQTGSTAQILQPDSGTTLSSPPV
Method in brief: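 HUVEC cells, serum-starved 24 h, were treated 1 h with an 8-point compound dilution (0.3% DMSO) and then stimulated with 100 ng/mL VEGF165 for 5 min. Phospho-KDR in lysates was quantified by sandwich ELISA against a phospho-KDR standard. IC50 from a 4-parameter logistic fit, normalised between stimulated DMSO and unstimulated controls.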

[3] = biological target: Human KDR (residues 790-1356) (Homo sapiens (Human), UniProt P35968); test: Human KDR kinase assay, HTRF KinEase (Example B-2); format: biochemical
Human KDR (residues 790-1356), sequence (P35968 790-1356): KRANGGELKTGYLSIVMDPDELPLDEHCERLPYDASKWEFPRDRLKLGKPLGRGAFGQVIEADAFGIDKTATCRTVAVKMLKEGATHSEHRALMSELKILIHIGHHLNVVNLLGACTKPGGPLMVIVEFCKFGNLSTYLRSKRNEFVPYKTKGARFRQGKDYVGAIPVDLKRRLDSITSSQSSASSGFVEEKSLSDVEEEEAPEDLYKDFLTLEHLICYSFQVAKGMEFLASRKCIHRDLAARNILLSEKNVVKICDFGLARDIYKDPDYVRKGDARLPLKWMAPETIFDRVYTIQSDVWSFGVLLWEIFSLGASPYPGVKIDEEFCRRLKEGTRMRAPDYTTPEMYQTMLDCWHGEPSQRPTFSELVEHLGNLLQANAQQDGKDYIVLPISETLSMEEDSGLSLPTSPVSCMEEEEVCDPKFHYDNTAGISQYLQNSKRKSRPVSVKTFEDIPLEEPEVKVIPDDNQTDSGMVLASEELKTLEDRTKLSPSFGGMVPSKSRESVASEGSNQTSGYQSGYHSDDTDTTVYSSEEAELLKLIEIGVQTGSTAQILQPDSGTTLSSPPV
Method in brief: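 Human KDR residues 790-1356 (0.1 ng/well) in buffer with 5 mM MgCl2, 1 mM MnCl2, 1 mM DTT, biotinylated peptide substrate, ATP at Km (4.0 μM), 3% DMSO, 10 compound concentrations; 40 min, room temperature. EDTA stop, streptavidin-XL665/Eu-TK antibody HTRF read 665/620 nm; 4-parameter IC50.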

[4] = biological target: Mer (phospho-Mer, MERTK-transfected 293A cells) (Homo sapiens (Human), UniProt Q12866); test: Mer autophosphorylation ELISA in transient transfected 293A cells (Example H); format: cell-based; details: cellular activity; Mer autophosphorylation ELISA in transient transfected 293A cells
Mer (phospho-Mer, MERTK-transfected 293A cells), sequence (Q12866 21-999): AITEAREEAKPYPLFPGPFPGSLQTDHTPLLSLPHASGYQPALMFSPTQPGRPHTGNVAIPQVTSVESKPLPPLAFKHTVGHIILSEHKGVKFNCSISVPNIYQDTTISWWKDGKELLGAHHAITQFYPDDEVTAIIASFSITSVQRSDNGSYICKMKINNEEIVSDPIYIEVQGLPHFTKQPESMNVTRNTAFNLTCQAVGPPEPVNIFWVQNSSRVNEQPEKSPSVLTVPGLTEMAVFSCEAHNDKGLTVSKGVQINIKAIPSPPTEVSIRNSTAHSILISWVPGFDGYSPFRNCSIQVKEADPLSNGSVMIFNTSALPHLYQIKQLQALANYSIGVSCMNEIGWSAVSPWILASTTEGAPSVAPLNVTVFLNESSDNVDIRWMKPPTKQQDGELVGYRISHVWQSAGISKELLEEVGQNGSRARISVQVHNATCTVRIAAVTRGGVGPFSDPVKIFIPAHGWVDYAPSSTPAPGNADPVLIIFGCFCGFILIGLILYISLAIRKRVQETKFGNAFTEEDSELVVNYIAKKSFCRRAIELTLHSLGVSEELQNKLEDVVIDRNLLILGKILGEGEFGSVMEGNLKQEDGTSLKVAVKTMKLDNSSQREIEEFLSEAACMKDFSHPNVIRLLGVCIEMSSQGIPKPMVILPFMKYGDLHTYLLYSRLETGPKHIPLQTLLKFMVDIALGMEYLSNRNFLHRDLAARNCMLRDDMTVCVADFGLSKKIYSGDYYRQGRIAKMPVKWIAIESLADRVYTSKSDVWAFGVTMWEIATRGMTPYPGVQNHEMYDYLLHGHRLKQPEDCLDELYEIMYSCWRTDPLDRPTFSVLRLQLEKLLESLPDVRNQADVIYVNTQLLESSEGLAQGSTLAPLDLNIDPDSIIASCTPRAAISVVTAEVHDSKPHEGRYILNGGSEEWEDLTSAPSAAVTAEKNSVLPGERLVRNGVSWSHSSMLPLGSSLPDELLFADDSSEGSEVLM
Method in brief: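 Inhibition of cellular Mer autophosphorylation is determined in 293A cells transiently expressing human MERTK after 1 h compound exposure (8 concentrations, serum-free, 0.3% DMSO). Phospho-Mer in clarified lysates is measured by ELISA, with DMSO and reference-inhibitor wells defining the 100% and 0% activity limits.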

[5] = protocol of Example C-2 (other compounds)
[6] = protocol of Example B-2 (other compounds)

Human MER (residues 528-999), sequence (Q12866 528-999): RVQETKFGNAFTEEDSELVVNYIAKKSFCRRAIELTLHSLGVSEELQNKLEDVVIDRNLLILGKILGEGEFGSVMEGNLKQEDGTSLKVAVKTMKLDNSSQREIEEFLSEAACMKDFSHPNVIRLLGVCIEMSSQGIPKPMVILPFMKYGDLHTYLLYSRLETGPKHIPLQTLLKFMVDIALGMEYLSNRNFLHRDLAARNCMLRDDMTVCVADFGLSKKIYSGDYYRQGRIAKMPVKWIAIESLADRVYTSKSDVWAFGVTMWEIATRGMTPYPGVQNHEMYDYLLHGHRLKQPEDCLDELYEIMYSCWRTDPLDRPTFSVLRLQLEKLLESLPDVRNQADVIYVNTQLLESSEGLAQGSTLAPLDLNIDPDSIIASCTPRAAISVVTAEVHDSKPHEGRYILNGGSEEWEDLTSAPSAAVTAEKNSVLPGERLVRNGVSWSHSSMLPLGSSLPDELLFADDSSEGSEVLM

| SMILES | IC50 [1, 5] | IC50 [2] | IC50 [3, 6] | IC50 [4] | IC50 ([1]; protocol of Example C-2) | IC50 ([3]; protocol of Example B-2) |
| --- | --- | --- | --- | --- | --- | --- |
| COc1cnc2c(Oc3ccc(NC(=O)c4cncc(-c5ccc(F)cc5)c4O)cc3)ccnc2c1 [Compound 146, 5-(4-Fluorophenyl)-4-hydroxy-N-[4-[(7-methoxy-1,5-naphthyridin-4-yl)oxy]phenyl]pyridine-3-carboxamide] | < 100 nM | < 100 nM | < 100 nM | < 100 nM | – | – |
| COc1cnc2c(Oc3ccc(NC(=O)c4cn(C(C)C)c(C)c(-c5ccc(F)cc5)c4=O)cc3)ccnc2c1 [Compound 148, 5-(4-Fluorophenyl)-N-[4-[(7-methoxy-1,5-naphthyridin-4-yl)oxy]phenyl]-6-methyl-4-oxo-1-propan-2-ylpyridine-3-carboxamide] | < 100 nM | > 300 nM | > 300 nM | < 100 nM | – | – |
| Cc1ncc(C(=O)Nc2ccc(Oc3ccnc4cc(C(F)(F)F)cnc34)c(F)c2)c(O)c1-c1ccc(F)cc1 [Compound 151, 5-(4-Fluorophenyl)-N-[3-fluoro-4-[[7-(trifluoromethyl)-1,5-naphthyridin-4-yl]oxy]phenyl]-4-hydroxy-6-methylpyridine-3-carboxamide] | < 100 nM | < 100 nM | > 300 nM | < 100 nM | – | – |
| Cc1nc2c(Oc3ccc(NC(=O)c4cn(C(C)C)c(C)c(-c5ccc(F)cc5)c4=O)cc3F)ccnc2cc1Br [Compound 153, N-[4-[(7-Bromo-6-methyl-1,5-naphthyridin-4-yl)oxy]-3-fluorophenyl]-5-(4-fluorophenyl)-6-methyl-4-oxo-1-propan-2-ylpyridine-3-carboxamide] | < 100 nM | > 300 nM | > 300 nM | < 100 nM | – | – |
| COc1cc2nccc(Oc3ccc(NC(=O)c4cnc(C(C)(C)C)c(-c5ccc(F)cc5)c4O)cc3F)c2nc1OC [Compound 155, 6-tert-Butyl-N-[4-[(6,7-dimethoxy-1,5-naphthyridin-4-yl)oxy]-3-fluorophenyl]-5-(4-fluorophenyl)-4-hydroxypyridine-3-carboxamide] | < 100 nM | > 300 nM | > 300 nM | < 100 nM | – | – |
| COc1cnc2c(Oc3ccc(NC(=O)c4cn(C)c(C)c(-c5ccc(F)cc5)c4=O)cc3F)ccnc2c1 [Compound 156, N-[3-Fluoro-4-[(7-methoxy-1,5-naphthyridin-4-yl)oxy]phenyl]-5-(4-fluorophenyl)-1,6-dimethyl-4-oxopyridine-3-carboxamide] | < 100 nM | > 300 nM | > 300 nM | < 100 nM | – | – |
| COc1cc2nccc(Oc3ccc(NC(=O)c4cn(CCN5CCOCC5)cc(-c5ccc(F)cc5)c4=O)cc3F)c2nc1OC [Compound 157, N-[4-[(6,7-Dimethoxy-1,5-naphthyridin-4-yl)oxy]-3-fluorophenyl]-5-(4-fluorophenyl)-1-(2-morpholin-4-ylethyl)-4-oxopyridine-3-carboxamide] | < 100 nM | 100 to 300 nM | > 300 nM | < 100 nM | – | – |
| Cc1c(-c2ccc(F)cc2)c(=O)c(C(=O)Nc2ccc(Oc3ccnc4cc(F)cnc34)c(F)c2)cn1C(C)C [Compound 162, N-[3-Fluoro-4-[(7-fluoro-1,5-naphthyridin-4-yl)oxy]phenyl]-5-(4-fluorophenyl)-6-methyl-4-oxo-1-propan-2-ylpyridine-3-carboxamide] | 100 to 300 nM | > 300 nM | > 300 nM | < 100 nM | – | – |
| CCn1cc(C(=O)Nc2ccc(Oc3ccnc4cc(OC)cnc34)cc2)c(=O)c(-c2ccc(F)cc2)c1C [Compound 163, 1-Ethyl-5-(4-fluorophenyl)-N-[4-[(7-methoxy-1,5-naphthyridin-4-yl)oxy]phenyl]-6-methyl-4-oxopyridine-3-carboxamide] | < 100 nM | > 300 nM | > 300 nM | < 100 nM | – | – |
| CCn1cc(C(=O)Nc2ccc(Oc3ccnc4cc(OC)cnc34)c(F)c2)c(=O)c(-c2ccc(F)cc2)c1C [Compound 164, 1-Ethyl-N-[3-fluoro-4-[(7-methoxy-1,5-naphthyridin-4-yl)oxy]phenyl]-5-(4-fluorophenyl)-6-methyl-4-oxopyridine-3-carboxamide] | < 100 nM | > 300 nM | > 300 nM | < 100 nM | – | – |
| COc1cnc2c(Oc3ccc(NC(=O)c4cn(C(C)(C)C)c(C)c(-c5ccc(F)cc5)c4=O)cc3F)ccnc2c1 [Compound 166, 1-tert-Butyl-N-[3-fluoro-4-[(7-methoxy-1,5-naphthyridin-4-yl)oxy]phenyl]-5-(4-fluorophenyl)-6-methyl-4-oxopyridine-3-carboxamide] | < 100 nM | > 300 nM | > 300 nM | < 100 nM | – | – |
| CCn1cc(C(=O)Nc2ccc(Oc3ccnc4cc(OC)c(OC)nc34)cc2)c(=O)c(-c2ccc(F)cc2)c1 [Compound 167, N-[4-[(6,7-Dimethoxy-1,5-naphthyridin-4-yl)oxy]phenyl]-1-ethyl-5-(4-fluorophenyl)-4-oxopyridine-3-carboxamide] | < 100 nM | < 100 nM | 100 to 300 nM | < 100 nM | – | – |
| CCn1cc(C(=O)Nc2ccc(Oc3ccnc4cc(OC)c(OC)nc34)cc2)c(=O)c(-c2ccc(F)cc2)c1C [Compound 168, N-[4-[(6,7-Dimethoxy-1,5-naphthyridin-4-yl)oxy]phenyl]-1-ethyl-5-(4-fluorophenyl)-6-methyl-4-oxopyridine-3-carboxamide] | < 100 nM | 100 to 300 nM | 100 to 300 nM | < 100 nM | – | – |
| CCn1cc(C(=O)Nc2ccc(Oc3ccnc4cc(OC)cnc34)cc2)c(=O)c(-c2ccc(F)cc2)c1 [Compound 169, 1-Ethyl-5-(4-fluorophenyl)-N-[4-[(7-methoxy-1,5-naphthyridin-4-yl)oxy]phenyl]-4-oxopyridine-3-carboxamide] | < 100 nM | > 300 nM | > 300 nM | < 100 nM | – | – |
| CCn1cc(C(=O)Nc2ccc(Oc3ccnc4cc(OC)cnc34)c(F)c2)c(=O)c(-c2ccc(F)cc2)c1 [Compound 170, 1-Ethyl-N-[3-fluoro-4-[(7-methoxy-1,5-naphthyridin-4-yl)oxy]phenyl]-5-(4-fluorophenyl)-4-oxopyridine-3-carboxamide] | < 100 nM | > 300 nM | > 300 nM | < 100 nM | – | – |
| COc1cc2nccc(Oc3ccc(NC(=O)c4cnc(C)c(-c5ccc(F)cc5)c4O)cc3)c2cc1OC [Compound 171, N-[4-(6,7-Dimethoxyquinolin-4-yl)oxyphenyl]-5-(4-fluorophenyl)-4-hydroxy-6-methylpyridine-3-carboxamide] | < 100 nM | < 100 nM | < 100 nM | < 100 nM | – | – |
| COc1ccc2nccc(Oc3ccc(NC(=O)c4cnc(C)c(-c5ccc(F)cc5)c4O)cc3F)c2n1 [Compound 172, N-[3-Fluoro-4-[(6-methoxy-1,5-naphthyridin-4-yl)oxy]phenyl]-5-(4-fluorophenyl)-4-hydroxy-6-methylpyridine-3-carboxamide] | < 100 nM | < 100 nM | 100 to 300 nM | < 100 nM | – | – |
| COc1cc2nccc(Oc3ccc(NC(=O)c4c(C)nc(C)c(-c5ccc(F)cc5)c4O)cc3)c2nc1OC [Compound 173, N-[4-[(6,7-Dimethoxy-1,5-naphthyridin-4-yl)oxy]phenyl]-5-(4-fluorophenyl)-4-hydroxy-2,6-dimethylpyridine-3-carboxamide] | < 100 nM | < 100 nM | < 100 nM | < 100 nM | – | – |
| COc1cc2nccc(Oc3ccc(NC(=O)c4cnc(C)c(-c5ccc(F)cc5C)c4O)cc3)c2nc1OC [Compound 174, N-[4-[(6,7-Dimethoxy-1,5-naphthyridin-4-yl)oxy]phenyl]-5-(4-fluoro-2-methylphenyl)-4-hydroxy-6-methylpyridine-3-carboxamide] | < 100 nM | < 100 nM | < 100 nM | < 100 nM | – | – |
| COc1cnc2c(Oc3ccc(NC(=O)c4cnc(C)c(-c5ccc(F)cc5C)c4O)cc3F)ccnc2c1 [Compound 175, N-[3-Fluoro-4-[(7-methoxy-1,5-naphthyridin-4-yl)oxy]phenyl]-5-(4-fluoro-2-methylphenyl)-4-hydroxy-6-methylpyridine-3-carboxamide] | < 100 nM | < 100 nM | 100 to 300 nM | < 100 nM | – | – |
| COc1cc2nccc(Oc3ccc(NC(=O)c4cnc(N)n(-c5ccc(F)cc5)c4=O)cc3F)c2nc1OC [Compound 565, 2-Amino-N-[4-[(6,7-dimethoxy-1,5-naphthyridin-4-yl)oxy]-3-fluorophenyl]-1-(4-fluorophenyl)-6-oxopyrimidine-5-carboxamide] | – | < 100 nM | – | < 100 nM | < 100 nM | < 100 nM |
